Test results as given in ChEMBL document CHEMBL2346585, “Novel 1,3,4-oxadiazole thioether derivatives targeting thymidylate synthase as dual anticancer/antimicrobial agents” (Bioorg Med Chem, 2013).
pIC50: −log10 of the molar value. In brackets after ≈: the same amount, converted by molar mass.

What was measured:
HepG2 = assay: cells; conditions: Homo sapiens, HepG2, 48 h
Description: Cytotoxicity against human HepG2 cells after 48 hrs by MTT assay

SGC-7901 = assay: cells; conditions: Homo sapiens, SGC-7901, 48 h
Description: Cytotoxicity against human SGC7901 cells after 48 hrs by MTT assay

MCF7 = assay: cells; conditions: Homo sapiens, MCF7, 48 h
Description: Cytotoxicity against human MCF7 cells after 48 hrs by MTT assay

[1] = Inhibition of Escherichia coli thymidylate synthase by spectrophotometric analysis
Staphylococcus aureus = assay: Antibacterial activity against Staphylococcus aureus ATCC 530 assessed as growth inhibition after 24 hrs by MTT assay; format: functional; conditions: ATCC 530, 24 h
Pseudomonas aeruginosa = assay: Antibacterial activity against Pseudomonas aeruginosa ATCC 27853 assessed as growth inhibition after 24 hrs by MTT assay; format: functional; conditions: ATCC 27853, 24 h
Escherichia coli = assay: Antibacterial activity against Escherichia coli ATCC 25922 assessed as growth inhibition after 24 hrs by MTT assay; format: functional; conditions: ATCC 25922, 24 h
Bacillus subtilis = assay: Antibacterial activity against Bacillus subtilis […] assessed as growth inhibition after 24 hrs by MTT assay; format: functional

| SMILES | pIC50 (HepG2) | pIC50 (SGC-7901) | pIC50 (MCF7) | pIC50 [1] | MIC (Staphylococcus aureus) [µg/mL] | MIC (Pseudomonas aeruginosa) [µg/mL] | MIC (Escherichia coli) [µg/mL] | MIC (Bacillus subtilis) [µg/mL] |
| --- | --- | --- | --- | --- | --- | --- | --- | --- |
| Cc1ncc([N+](=O)[O-])n1CCSc1nnc(-c2cccs2)o1 | 4.69 | 4.51 | 4.59 | – | – | – | – | – |
| Cc1ncc([N+](=O)[O-])n1CCSc1nnc(-c2ccc3ccccc3c2)o1 | 5.00 | 4.51 | 4.47 | – | – | – | – | – |
| Cc1ncc([N+](=O)[O-])n1CCSc1nnc(-c2ccc3c(c2)OCCO3)o1 | 5.39 | 5.04 | 4.84 | 5.62 | – | – | – | – |
| Cc1ncc([N+](=O)[O-])n1CCSc1nnc(-c2ccc(F)cc2)o1 | 6.22 | 5.28 | 5.09 | 5.41 | – | – | – | – |
| Cc1ncc([N+](=O)[O-])n1CCSc1nnc(-c2ccccc2Cl)o1 | 4.81 | 4.49 | 4.65 | – | – | – | – | – |
| Cc1ncc([N+](=O)[O-])n1CCSc1nnc(-c2ccc(Cl)cc2)o1 | 5.11 | 4.50 | 4.73 | – | – | – | – | – |
| Cc1ncc([N+](=O)[O-])n1CCSc1nnc(-c2ccccc2O)o1 | 4.71 | 4.52 | 4.55 | – | – | – | – | – |
| Cc1ncc([N+](=O)[O-])n1CCSc1nnc(-c2ccc(C(C)C)cc2)o1 | 5.37 | 4.86 | 4.68 | < 5.00 | – | – | – | – |
| Cc1ncc([N+](=O)[O-])n1CCSc1nnc(-c2ccc(C(C)(C)C)cc2)o1 | 5.40 | 4.51 | 4.66 | < 5.00 | – | – | – | – |
| Cc1ncc([N+](=O)[O-])n1CCSc1nnc(-c2ccc(N(C)C)cc2)o1 | 4.92 | 4.48 | 4.83 | – | – | – | – | – |
| Cc1cccc(-c2nnc(SCCn3c([N+](=O)[O-])cnc3C)o2)c1O | 5.06 | 4.44 | 4.70 | – | – | – | – | – |
| Cc1ccc(-c2nnc(SCCn3c([N+](=O)[O-])cnc3C)o2)c(O)c1 | 4.78 | 4.44 | 4.63 | – | – | – | – | – |
| COc1ccc(-c2nnc(SCCn3c([N+](=O)[O-])cnc3C)o2)c(O)c1 | 4.96 | 4.93 | 4.66 | – | – | – | – | – |
| COc1cc(OC)cc(-c2nnc(SCCn3c([N+](=O)[O-])cnc3C)o2)c1 | 4.98 | 5.02 | 4.89 | – | – | – | – | – |
| COc1cc(-c2nnc(SCCn3c([N+](=O)[O-])cnc3C)o2)cc(OC)c1OC | 4.83 | 4.46 | 4.51 | < 5.00 | – | – | – | – |
| Cc1ncc([N+](=O)[O-])n1CCSc1nnc(-c2ccco2)o1 | 4.65 | 4.50 | 4.53 | – | – | – | – | – |
| Cc1ncc([N+](=O)[O-])n1CCSc1nnc(-c2ccccn2)o1 | 4.69 | 4.52 | 4.41 | – | – | – | – | – |
| Cc1ncc([N+](=O)[O-])n1CCSc1nnc(-c2cccnc2)o1 | 5.02 | 4.50 | 4.54 | – | – | – | – | – |
| Cc1ncc([N+](=O)[O-])n1CCSc1nnc(-c2cnccc2N)o1 | 5.08 | 4.46 | 4.53 | 5.74 | 25 (≈ 72 µM) | 12.5 (≈ 36 µM) | 12.5 (≈ 36 µM) | 50 (≈ 144 µM) |
| Cc1ncc([N+](=O)[O-])n1CCSc1nnc(-c2ccc(N)nc2)o1 | 5.03 | 4.51 | 4.57 | – | – | – | – | – |

| SMILES | pIC50 (HepG2) | pIC50 (SGC-7901) | pIC50 (MCF7) | pIC50 [1] | MIC (Staphylococcus aureus) [µg/mL] | MIC (Pseudomonas aeruginosa) [µg/mL] | MIC (Escherichia coli) [µg/mL] | MIC (Bacillus subtilis) [µg/mL] |
| --- | --- | --- | --- | --- | --- | --- | --- | --- |
| Cc1ncc([N+](=O)[O-])n1CCSc1nnc(-c2ccncc2)o1 | 4.83 | 4.80 | 4.90 | – | – | – | – | – |
| Cc1ncc([N+](=O)[O-])n1CCSc1nnc(-c2ccnc(N)c2)o1 | 6.05 | 4.52 | 4.70 | 5.90 | 25 (≈ 72 µM) | 6.25 (≈ 18 µM) | 3.13 (≈ 9.01 µM) | 50 (≈ 144 µM) |
| Cc1ncc([N+](=O)[O-])n1CCSc1nnc(-c2ccnc(Cl)c2)o1 | 4.94 | 4.49 | 4.39 | 5.39 | – | – | – | – |
| Cc1ncc([N+](=O)[O-])n1CCSc1nnc(-c2cccc3ccccc23)o1 | 4.97 | 5.06 | 4.52 | – | – | – | – | – |
| Cc1ncc([N+](=O)[O-])n1CCSc1nnc(-c2ccccc2)o1 | 4.76 | 4.52 | 4.69 | – | – | – | – | – |
| Cc1ccccc1-c1nnc(SCCn2c([N+](=O)[O-])cnc2C)o1 | 5.29 | 4.49 | 4.80 | – | – | – | – | – |
| Cc1ccc(-c2nnc(SCCn3c([N+](=O)[O-])cnc3C)o2)cc1 | 5.66 | 4.90 | 4.81 | < 5.00 | – | – | – | – |
| COc1ccccc1-c1nnc(SCCn2c([N+](=O)[O-])cnc2C)o1 | 5.00 | 4.52 | 4.97 | – | – | – | – | – |
| COc1ccc(-c2nnc(SCCn3c([N+](=O)[O-])cnc3C)o2)cc1 | 5.24 | 4.99 | 4.97 | – | – | – | – | – |
| Cc1ncc([N+](=O)[O-])n1CCSc1nnc(-c2ccccc2N)o1 | 5.35 | 4.45 | 4.70 | – | – | – | – | – |
| Cc1ncc([N+](=O)[O-])n1CCSc1nnc(-c2ccc(N)cc2)o1 | 5.17 | 4.50 | 4.70 | – | – | – | – | – |
| CCOc1ccccc1-c1nnc(SCCn2c([N+](=O)[O-])cnc2C)o1 | 5.01 | 4.52 | 4.59 | – | – | – | – | – |
| CCOc1ccc(-c2nnc(SCCn3c([N+](=O)[O-])cnc3C)o2)cc1 | 5.72 | 4.85 | 4.78 | 5.20 | – | – | – | – |
| Cc1ncc([N+](=O)[O-])n1CCSc1nnc(-c2ccccc2[N+](=O)[O-])o1 | 6.15 | 4.52 | 4.74 | 6.33 | 1.56 (≈ 4.15 µM) | 3.13 (≈ 8.32 µM) | 1.56 (≈ 4.15 µM) | 3.13 (≈ 8.32 µM) |
| Cc1ncc([N+](=O)[O-])n1CCSc1nnc(-c2ccc([N+](=O)[O-])cc2)o1 | 5.39 | 4.91 | 4.90 | – | – | – | – | – |
| Cc1ncc([N+](=O)[O-])n1CCSc1nnc(-c2ccccc2F)o1 | 5.43 | 4.47 | 4.69 | – | – | – | – | – |
| O=c1[nH]cc(F)c(=O)[nH]1 [FLUOROURACIL] | 4.64 | 4.54 | 4.78 | – | – | – | – | – |
| NC[C@H]1O[C@H](O[C@H]2[C@H](O)[C@@H](O[C@H]3O[C@H](CO)[C@@H](O)[C@H](N)[C@H]3O)[C@H](N)C[C@@H]2N)[C@H](O)[C@@H](O)[C@@H]1O [KANAMYCIN] | – | – | – | – | 1.56 (≈ 3.22 µM) | 3.13 (≈ 6.46 µM) | 3.13 (≈ 6.46 µM) | 1.56 (≈ 3.22 µM) |
| Nc1nc2[nH]cc(CCc3ccc(C(=O)N[C@@H](CCC(=O)O)C(=O)O)cc3)c2c(=O)[nH]1 [PEMETREXED] | – | – | – | 4.12 | – | – | – | – |
| Cc1nc(=O)c2cc(CN(C)c3ccc(C(=O)N[C@@H](CCC(=O)O)C(=O)O)s3)ccc2[nH]1 [RALTITREXED] | 5.89 | 5.06 | 4.90 | – | 50 (≈ 109 µM) | 50 (≈ 109 µM) | 25 (≈ 54.5 µM) | 25 (≈ 54.5 µM) |
